Laboratory results published in patent US8541418B2, “Inhibitors of polo-like kinase” (Elan Pharmaceutical, Inc., priority 2009, dated 2013).

Key:
Type in all cases: biochemical
[1] = target: PLK1 (Homo sapiens, UniProt P53350); assay: PLK TR-FRET peptide assay, PLK1; settings: GST-PLK1, 60 min reaction
[2] = target: PLK3 (Homo sapiens, UniProt Q9H4B4); assay: PLK TR-FRET peptide assay, PLK3; settings: GST-PLK3, 15 min reaction, read-out: Plk3 IC50
[3] = target: PLK2 (Homo sapiens, UniProt Q9NYY3); assay: PLK TR-FRET peptide assay, PLK2; settings: for IC50: PLK TR-FRET peptide assay, GST-PLK2, 60 min reaction, read-out: Plk2 IC50; for relative PLK2 activity of the enantiomers: compared with the opposite enantiomer
Sequence of PLK2 (Q9NYY3 whole entry): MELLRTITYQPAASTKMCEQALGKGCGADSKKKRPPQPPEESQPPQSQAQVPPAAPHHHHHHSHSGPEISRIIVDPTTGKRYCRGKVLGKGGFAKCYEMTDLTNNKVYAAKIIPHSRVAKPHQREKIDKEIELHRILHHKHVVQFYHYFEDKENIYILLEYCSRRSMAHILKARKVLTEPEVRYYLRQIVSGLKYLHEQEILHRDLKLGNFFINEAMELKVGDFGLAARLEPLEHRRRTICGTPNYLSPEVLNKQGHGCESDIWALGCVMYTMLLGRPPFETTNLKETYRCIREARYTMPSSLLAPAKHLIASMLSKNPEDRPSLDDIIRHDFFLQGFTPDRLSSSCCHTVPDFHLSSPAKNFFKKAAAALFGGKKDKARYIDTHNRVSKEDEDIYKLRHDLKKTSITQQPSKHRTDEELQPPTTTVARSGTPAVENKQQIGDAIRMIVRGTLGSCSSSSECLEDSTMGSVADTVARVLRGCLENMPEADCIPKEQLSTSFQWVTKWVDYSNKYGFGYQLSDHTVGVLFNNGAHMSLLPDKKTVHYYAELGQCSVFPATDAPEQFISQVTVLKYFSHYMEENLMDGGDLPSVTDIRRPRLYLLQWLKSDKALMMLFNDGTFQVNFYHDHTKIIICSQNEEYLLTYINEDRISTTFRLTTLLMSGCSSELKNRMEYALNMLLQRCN

Sequence of PLK3 (Q9H4B4 whole entry): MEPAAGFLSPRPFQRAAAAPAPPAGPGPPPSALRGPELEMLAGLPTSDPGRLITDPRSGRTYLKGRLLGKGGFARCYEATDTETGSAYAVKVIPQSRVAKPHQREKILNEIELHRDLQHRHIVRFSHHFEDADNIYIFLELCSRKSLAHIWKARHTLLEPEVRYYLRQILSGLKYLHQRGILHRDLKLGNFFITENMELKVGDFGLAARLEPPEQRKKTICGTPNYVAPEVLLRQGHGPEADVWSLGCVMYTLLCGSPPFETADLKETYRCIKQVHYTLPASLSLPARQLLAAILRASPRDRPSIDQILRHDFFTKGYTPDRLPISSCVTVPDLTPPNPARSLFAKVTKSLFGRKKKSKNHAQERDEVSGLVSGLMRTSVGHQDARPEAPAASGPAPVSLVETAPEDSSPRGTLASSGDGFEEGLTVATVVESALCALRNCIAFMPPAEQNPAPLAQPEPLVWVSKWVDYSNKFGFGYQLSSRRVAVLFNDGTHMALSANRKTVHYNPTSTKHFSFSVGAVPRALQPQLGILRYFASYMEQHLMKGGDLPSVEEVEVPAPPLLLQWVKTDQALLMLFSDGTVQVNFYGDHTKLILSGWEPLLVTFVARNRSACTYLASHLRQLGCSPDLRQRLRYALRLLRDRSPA
Sequence of PLK1 (P53350 whole entry): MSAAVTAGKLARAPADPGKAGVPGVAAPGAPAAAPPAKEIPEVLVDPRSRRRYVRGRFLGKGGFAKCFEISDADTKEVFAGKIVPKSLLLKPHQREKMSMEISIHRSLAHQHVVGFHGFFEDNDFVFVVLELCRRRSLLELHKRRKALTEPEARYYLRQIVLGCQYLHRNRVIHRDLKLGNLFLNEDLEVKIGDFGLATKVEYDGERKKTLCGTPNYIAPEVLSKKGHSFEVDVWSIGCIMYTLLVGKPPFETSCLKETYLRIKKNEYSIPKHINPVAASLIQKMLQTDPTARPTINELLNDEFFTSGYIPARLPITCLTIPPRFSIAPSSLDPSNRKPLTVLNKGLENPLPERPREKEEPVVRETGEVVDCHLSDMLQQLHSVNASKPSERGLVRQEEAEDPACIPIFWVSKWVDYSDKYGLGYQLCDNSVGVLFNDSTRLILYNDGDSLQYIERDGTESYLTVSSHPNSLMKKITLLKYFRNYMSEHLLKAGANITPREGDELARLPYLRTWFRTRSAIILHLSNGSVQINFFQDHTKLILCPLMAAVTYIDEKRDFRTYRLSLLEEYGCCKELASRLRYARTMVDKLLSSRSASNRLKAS

`CC[C@@H]1C(=O)N(C)c2cnc(-c3cnoc3-c3nccs3)nc2N1C(C)C` [Example 187, (R)-7-ethyl-8-isopropyl-5-methyl-2-(5-(thiazol-2-yl)isoxazol-4-yl)-7,8-dihydropteridin-6(5H)-one] showed an IC50 [1] of 10 to 50 µM, an IC50 [2] of 10 to 50 µM and an IC50 [3] of 10 to 50 µM.

`CC[C@@H]1C(=O)N(C)c2cnc(-n3ccnc3-c3ccc(F)c(F)c3)nc2N1C1CCOC1` (stereo partly drawn) [Example 191, (7R)-2-(2-(3,4-difluorophenyl)-1H-imidazol-1-yl)-7-ethyl-5-methyl-8-(tetrahydrofuran-3-yl)-7,8-dihydropteridin-6(5H)-one] showed an IC50 [1] of 1 to 10 µM, an IC50 [2] of 10 to 50 µM and an IC50 [3] of under 1 µM.

`CC[C@@]12CCCN1c1nc(-n3nccc3-c3ccccc3)ncc1N(C)C2=O` [Example 193, (S)-6a-ethyl-5-methyl-2-(5-phenyl-1H-pyrazol-1-yl)-6a,7,8,9-tetrahydropyrrolo[2,1-h]pteridin-6(5H)-one] showed an IC50 [1] of 1 to 10 µM, an IC50 [2] of 1 to 10 µM and an IC50 [3] of 1 to 10 µM.

`CC[C@@H]1C(=O)N(C)c2cnc(-n3ccnc3-c3cccc(F)c3)nc2N1C1CC(F)(F)C1` [Example 194, (R)-8-(3,3-difluorocyclobutyl)-7-ethyl-2-(2-(3-fluorophenyl)-1H-imidazol-1-yl)-5-methyl-7,8-dihydropteridin-6(5H)-one] showed an IC50 [1] of under 1 µM, an IC50 [2] of 10 to 50 µM and an IC50 [3] of under 1 µM.

With `CC[C@@H]1C(=O)N(C)c2cnc(-n3ccnc3-c3nccc4ccccc34)nc2N1C(C)C` [Example 196, (R)-7-ethyl-8-isopropyl-2-(2-(isoquinolin-1-yl)-1H-imidazol-1-yl)-5-methyl-7,8-dihydropteridin-6(5H)-one] the IC50 [1] was 10 to 50 µM, the IC50 [2] was over 50 µM and the IC50 [3] was 1 to 10 µM.

Compound `CC[C@@H]1C(=O)N(C)c2cnc(-c3cncnc3-c3nccs3)nc2N1C(C)C` [Example 197, (R)-7-ethyl-8-isopropyl-5-methyl-2-(4-(thiazol-2-yl)pyrimidin-5-yl)-7,8-dihydropteridin-6(5H)-one] has an IC50 [1] of 1 to 10 µM, an IC50 [2] of 1 to 10 µM and an IC50 [3] of 1 to 10 µM.

`CC[C@@H]1C(=O)N(C)c2cnc(-n3ccnc3-c3cc(Cl)cc(Cl)c3)nc2N1C1CCC1` [Example 198, (R)-8-cyclobutyl-2-(2-(3,5-dichlorophenyl)-1H-imidazol-1-yl)-7-ethyl-5-methyl-7,8-dihydropteridin-6(5H)-one] was tested, and the IC50 [1] was 1 to 10 µM, the IC50 [2] was 1 to 10 µM and the IC50 [3] was under 1 µM.

For `[2H]C([2H])([2H])N1C(=O)[C@H](C([2H])([2H])C([2H])([2H])[2H])N(C([2H])(C([2H])([2H])[2H])C([2H])([2H])[2H])c2nc(-n3ccnc3-c3ccc(F)cc3)ncc21` [Example 199, (S)-7-perdeuteroethyl-2-(2-(4-fluorophenyl)-1H-imidazol-1-yl)-8-perdeuteroisopropyl-5-trideuteromethyl-7,8-dihydropteridin-6(5H)-one], the IC50 [1] was 10 to 50 µM, the IC50 [2] was over 50 µM and the IC50 [3] was 1 to 10 µM.

For `[2H]C([2H])([2H])N1C(=O)[C@@H](C([2H])([2H])C([2H])([2H])[2H])N(C([2H])(C([2H])([2H])[2H])C([2H])([2H])[2H])c2nc(-n3ccnc3-c3ccc(F)cc3)ncc21` [Example 200, (R)-7-perdeuteroethyl-2-(2-(4-fluorophenyl)-1H-imidazol-1-yl)-8-perdeuteroisopropyl-5-trideuteromethyl-7,8-dihydropteridin-6(5H)-one], the IC50 [1] was 1 to 10 µM, the IC50 [2] was 1 to 10 µM and the IC50 [3] was under 1 µM. For the same compound, the “relative PLK2 activity of the enantiomers” value [3] was “more active compound”.

For `[2H]C([2H])([2H])N1C(=O)[C@H](C([2H])([2H])C([2H])([2H])[2H])N(C([2H])(C([2H])([2H])[2H])C([2H])([2H])[2H])c2nc(-n3ccnc3-c3cccc(F)c3)ncc21` [Example 201, (S)-7-perdeuteroethyl-2-(2-(3-fluorophenyl)-1H-imidazol-1-yl)-8-perdeuteroisopropyl-5-trideuteromethyl-7,8-dihydropteridin-6(5H)-one], the IC50 [1] was 10 to 50 µM, the IC50 [2] was over 50 µM and the IC50 [3] was 1 to 10 µM.

For `[2H]C([2H])([2H])N1C(=O)[C@@H](C([2H])([2H])C([2H])([2H])[2H])N(C([2H])(C([2H])([2H])[2H])C([2H])([2H])[2H])c2nc(-n3ccnc3-c3cccc(F)c3)ncc21` [Example 202, (R)-7-perdeuteroethyl-2-(2-(3-fluorophenyl)-1H-imidazol-1-yl)-8-perdeuteroisopropyl-5-trideuteromethyl-7,8-dihydropteridin-6(5H)-one], the IC50 [1] was under 1 µM, the IC50 [2] was 1 to 10 µM and the IC50 [3] was under 1 µM. For the same compound, the “relative PLK2 activity of the enantiomers” value [3] was “more active compound”.

In the case of `CC[C@@H]1C(=O)N(C)c2cnc(-n3ccnc3-c3cccc(Cl)c3)nc2N1C(C)C` [Example 204, (R)-2-(2-(3-chlorophenyl)-1H-imidazol-1-yl)-7-ethyl-8-isopropyl-5-methyl-7,8-dihydropteridin-6(5H)-one], the IC50 [1] is reported as under 1 µM, the IC50 [2] is reported as 1 to 10 µM and the IC50 [3] is reported as under 1 µM.

`CC[C@@]12CCCN1c1nc(-n3ccnc3-c3nccc4ccccc34)ncc1N(C)C2=O` [Example 206, (S)-6a-ethyl-2-(2-(isoquinolin-1-yl)-1H-imidazol-1-yl)-5-methyl-6a,7,8,9-tetrahydropyrrolo[2,1-h]pteridin-6(5H)-one] was tested, and the IC50 [1] was over 50 µM, the IC50 [2] was 10 to 50 µM and the IC50 [3] was 1 to 10 µM.

`CC[C@@H]1C(=O)N(C)c2cnc(-n3nccc3-c3ccccc3)nc2N1C1CCC1` [Example 207, (R)-8-cyclobutyl-7-ethyl-5-methyl-2-(5-phenyl-1H-pyrazol-1-yl)-7,8-dihydropteridin-6(5H)-one] was tested, and the IC50 [1] was under 1 µM, the IC50 [2] was 1 to 10 µM and the IC50 [3] was under 1 µM.

`CC[C@@H]1C(=O)N(C)c2cnc(-n3ncnc3-c3ccccc3)nc2N1C1CCC1` [Example 208, (R)-8-cyclobutyl-7-ethyl-5-methyl-2-(5-phenyl-1H-1,2,4-triazol-1-yl)-7,8-dihydropteridin-6(5H)-one] showed an IC50 [1] of under 1 µM, an IC50 [2] of under 1 µM and an IC50 [3] of under 1 µM.

`CCC12CCCCCN1c1nc(-n3nccc3-c3ccccc3)ncc1N(C)C2=O` (centres unmarked) [Example 209, 6a-ethyl-5-methyl-2-(5-phenyl-1H-pyrazol-1-yl)-6a,7,8,9,10,11-hexahydroazepino[2,1-h]pteridin-6(5H)-one] was tested, and the IC50 [1] was 10 to 50 µM, the IC50 [2] was 10 to 50 µM and the IC50 [3] was 1 to 10 µM.

In the case of `CC[C@@H]1C(=O)N(C)c2cnc(N3CCN(C)CC3)nc2N1C1CCCC1` [Example 210, (R)-8-cyclopentyl-7-ethyl-5-methyl-2-(4-methylpiperazin-1-yl)-7,8-dihydropteridin-6(5H)-one], the IC50 [1] is reported as over 50 µM, the IC50 [2] is reported as over 50 µM and the IC50 [3] is reported as over 50 µM.

Compound `CC[C@@H]1C(=O)N(C)c2cnc(-n3ccnc3-c3cccc(Cl)c3)nc2N1C1CCOC1` (stereo partly drawn) [Example 211, (7R)-2-(2-(3-chlorophenyl)-1H-imidazol-1-yl)-7-ethyl-5-methyl-8-(tetrahydrofuran-3-yl)-7,8-dihydropteridin-6(5H)-one] has an IC50 [1] of under 1 µM, an IC50 [2] of 1 to 10 µM and an IC50 [3] of under 1 µM.

With `CC[C@@H]1C(=O)N(C)c2cnc(-n3ccnc3-c3ccc(F)cc3)nc2N1C(C)C` [Example 212, (R)-7-ethyl-2-(2-(4-fluorophenyl)-1H-imidazol-1-yl)-8-isopropyl-5-methyl-7,8-dihydropteridin-6(5H)-one] the IC50 [1] was 1 to 10 µM, the IC50 [2] was 1 to 10 µM and the IC50 [3] was under 1 µM.

`CC[C@@]12CCCN1c1nc(-n3ccnc3-c3ccc(F)c(Cl)c3)ncc1N(C)C2=O` [Example 213, (S)-2-(2-(3-chloro-4-fluorophenyl)-1H-imidazol-1-yl)-6a-ethyl-5-methyl-6a,7,8,9-tetrahydropyrrolo[2,1-h]pteridin-6(5H)-one] was tested, and the IC50 [1] was 10 to 50 µM, the IC50 [2] was 10 to 50 µM and the IC50 [3] was under 1 µM.

In the case of `CC[C@@H]1C(=O)N(C)c2cnc(N3CCNC(=O)C3)nc2N1C1CCCC1` [Example 214, (R)-8-cyclopentyl-7-ethyl-5-methyl-2-(3-oxopiperazin-1-yl)-7,8-dihydropteridin-6(5H)-one], the IC50 [1] is reported as 1 to 10 µM, the IC50 [2] is reported as over 50 µM and the IC50 [3] is reported as 10 to 50 µM.

`CC[C@@H]1C(=O)N(C)c2cnc(-n3ncnc3-c3cccc4ncccc34)nc2N1C1CCC1` [Example 215, (R)-8-cyclobutyl-7-ethyl-5-methyl-2-(5-(quinolin-5-yl)-1H-1,2,4-triazol-1-yl)-7,8-dihydropteridin-6(5H)-one] was tested, and the IC50 [1] was 1 to 10 µM, the IC50 [2] was 1 to 10 µM and the IC50 [3] was 1 to 10 µM.

With `CC[C@@]12CCCN1c1nc(-n3ccnc3-c3ccc(Cl)s3)ncc1N(C)C2=O` [Example 218, (S)-2-(2-(5-chlorothiophen-2-yl)-1H-imidazol-1-yl)-6a-ethyl-5-methyl-6a,7,8,9-tetrahydropyrrolo[2,1-h]pteridin-6(5H)-one] the IC50 [1] was 10 to 50 µM, the IC50 [2] was 10 to 50 µM and the IC50 [3] was under 1 µM.

Compound `CC[C@@]12CCCN1c1nc(-n3ncnc3-c3cccc4ncccc34)ncc1N(C)C2=O` [Example 219, (S)-6a-ethyl-5-methyl-2-(5-(quinolin-5-yl)-1H-1,2,4-triazol-1-yl)-6a,7,8,9-tetrahydropyrrolo[2,1-h]pteridin-6(5H)-one] has an IC50 [1] of 10 to 50 µM, an IC50 [2] of over 50 µM and an IC50 [3] of 1 to 10 µM.

`CC[C@@H]1C(=O)N(C)c2cnc(-n3ccnc3-c3cccc(Br)c3)nc2N1C(C)C` [Example 220, (R)-2-(2-(3-bromophenyl)-1H-imidazol-1-yl)-7-ethyl-8-isopropyl-5-methyl-7,8-dihydropteridin-6(5H)-one] showed an IC50 [1] of under 1 µM, an IC50 [2] of 1 to 10 µM and an IC50 [3] of under 1 µM.

With `CC[C@@]12CCCN1c1nc(-c3cncnc3-c3ccccc3)ncc1N(C)C2=O` [Example 222, (S)-6a-ethyl-5-methyl-2-(4-phenylpyrimidin-5-yl)-6a,7,8,9-tetrahydropyrrolo[2,1-h]pteridin-6(5H)-one] the IC50 [1] was 10 to 50 µM, the IC50 [2] was 10 to 50 µM and the IC50 [3] was 1 to 10 µM.

In the case of `CC[C@@H]1C(=O)N(C)c2cnc(N3CCN(c4cnccn4)CC3)nc2N1C1CCCC1` [Example 223, (R)-8-cyclopentyl-7-ethyl-5-methyl-2-(4-(pyrazin-2-yl)piperazin-1-yl)-7,8-dihydropteridin-6(5H)-one], the IC50 [1] is reported as 1 to 10 µM, the IC50 [2] is reported as over 50 µM and the IC50 [3] is reported as 1 to 10 µM.
